Measurements reported in patent US10328080B2, “Therapeutic combination of PI3K inhibitor and a BTK inhibitor” (Acerta Pharma B.V., priority 2013, dated 2019).

Tests used:
[1] = system: human platelets, GPVI; experiment: GPVI platelet aggregation (Convulxin-induced); format: cell-based; conditions: CVX-induced, FIG. 56 and FIG. 57
Procedure: GPVI platelet aggregation was measured for Formula (XVIII) and Formula XX-A (ibrutinib). Blood was obtained from untreated humans, and platelets were purified from […] by centrifugation. Cells were resuspended to a final concentration of […] in buffer containing 145 mmol/L NaCl, 10 mmol/L HEPES, 0.5 mmol/L Na2HPO4, 5 mmol/L KCl, 2 mmol/L MgCl2, 1 mmol/L CaCl2, and 0.1% glucose, at pH 7.4. Stock solutions of […] were prepared on the day of experimentation and added to platelet suspensions 5 minutes (37° C., 1200 rpm) before the induction of aggregation. Aggregation was assessed with a Chronolog Lumi-Aggregometer (model 540 VS; Chronolog, Havertown, Pa.) and permitted to proceed for 6 minutes after the addition of agonist. The results are reported as maximum percent change in light transmittance from baseline with platelet buffer used as a reference.
In FIG. 57, the results of CVX-induced (250 ng/mL) human platelet aggregation results before and 15 min after administration of the BTK inhibitors to 6 healthy individuals are shown.

[2] = system: human platelet-mediated thrombosis; experiment: In vivo human thrombus formation in the VWF HA1 mice model (laser injury); conditions: human platelets preincubated with BTK inhibitor (0.1, 0.5 or 1 μM) 30 min; laser-induced injury in VWF HA1 mice
Procedure: Purified human platelets were preincubated with various concentrations of the BTK inhibitors (0.1 μM, 0.5 μM, or 1 μM) or DMSO and then administered to VWF HA1 mice, followed by laser-induced thrombus formation.
The objective of this study was to evaluate in vivo thrombus formation in the presence of BTK inhibitors.

[3] = system: ID8 ovarian cancer; experiment: ID8 syngeneic orthotropic ovarian cancer murine model; format: in vivo, mice; conditions: 15 mg/kg/BID given orally
Text: Human ovarian cancer models, including the ID8 syngeneic orthotropic ovarian cancer model and other animal models, are described in Fong and Kakar, J. Ovarian Res. 2009, 2, 12; Greenaway et al., Gynecol. Oncol. 2008, 108, 385-94; Urzua et al., Tumour Biol. 2005, 26, 236-44; Janat-Amsbury et al., Anticancer Res. 2006, 26, 3223-28; Janat-Amsbury et al., Anticancer Res. 2006, 26, 2785-89. […] The results of the study are shown in FIG. 42, FIG. 43, FIG. 44, FIG. 45, FIG. 46, FIG. 47, FIG. 48, and FIG. 49.

[4] = system: canine B cell lymphoma; experiment: Veterinary clinical trial in companion dogs with lymphoma; format: in vivo; conditions: Arm 1 monotherapy, Arm 2 combination
Procedure: Enrollment has completed for Arm 1 and is ongoing for Arm 2.
Intra-subject dose escalation was allowed. Six of the 11 dogs that initiated at 2.5 or 5 mg/kg once daily were escalated and completed the study with dosages of 10 mg/kg twice daily. Among all the dose cohorts, 8 dogs had shrinkage of target lesions >20%; the best tumor responses were between 45-49% reduction in the sum of target lesions in two dogs.

[5] = system: pancreatic tumor-bearing mice; experiment: Orthotopic pancreatic cancer model (KPC cells in C57BL/6 mice); format: in vivo; conditions: aggressive orthotopic PDA model, 15 mg/kg oral of each drug
Procedure: Cell line derived from KrasG12D;Trp53R^872H;Pdx1-Cre (KPC) mice were orthotopically implanted into the head of the pancreas after 35 passages. Based on the mice background from where the cell lines were generated, 1×10^6 cells were injected in C57BL/6 mice. Throughout the experiment, animals were provided with food and water ad libitum and subjected to a 12-h dark/light cycle. Animal studies were performed in accordance with the U.S. Public Health Service “Guidelines for the Care and Use of Laboratory Animals” (IACUC). After euthanization, pancreatic tumors were dissected out, weighed and single cell suspensions were prepared for flow cytometry analysis.

[6] = system: KPC derived mouse pancreatic cancer cells; experiment: KPC derived mouse pancreatic cancer model, tumor infiltrating MDSCs and TAMs; format: in vivo; conditions: 15 mg/kg/BID given orally
Procedure: In this study, KPC derived mouse pancreatic cancer cells (KrasG12D;Trp53R^872H;Pdx1-Cre) were injected into the pancreases.
Single cell suspensions from tumor samples. Mouse tumor tissue was collected and stored in PBS/0.1% soybean trypsin inhibitor prior to enzymatic dissociation. Samples were finely minced with a scissors and mouse tissue was transferred into DMEM containing 1.0 mg/ml collagenase IV (Gibco), 0.1% soybean trypsin inhibitor, and 50 U/ml DNase (Roche) and incubated at 37 C for 30 min. with constant stirring while human tissue was digested in 2.0 mg/ml collagenase IV, 1.0 mg/ml hyluronidase, 0.1% soybean trypsin inhibitor, and 50 U/ml DNase for 45 minutes. Suspensions were filtered through a 100 micron filter and washed with FACS buffer (PBS/0.5% BSA/2.0 mM EDTA) prior to staining. Two million total cells were stained with antibodies as indicated. Intracellular detection of FoxP3 was achieved following permeabilization with BD Perm Buffer III (BD Biosciences) and eBioscience Fix/Perm respectively. Following surface staining, samples were acquired on a BD Fortessa and analyzed using FlowJo (Treestar) software.

Structure (SMILES)	Inhibition of GPVI platelet aggregation [1]	Effect on human platelet-mediated thrombus formation [2]	CD8+ T cells ([3]; tumor-bearing mice)	Immunosuppressive tumor associated Tregs ([3]; tumor-bearing mice)	Immunosuppressive tumor-associated lymphocytes ([3]; tumor-bearing mice)	Immunosuppressive B cells ([3]; tumor-bearing mice, total B cells and Bregs)	ID8 ovarian cancer growth ([3]; vs vehicle)	Complete responses (CR) [4]	Median time on study (all subjects) ([4]; preliminary) [days]	Tumor burden [5]	Immature myeloid infiltrate ([5]; flow cytometry)	Number of immunosuppressive Tregs ([5]; flow cytometry)	Number of tumor associated macrophages ([5]; flow cytometry)	Tumor burden [6]
C=CC(=O)N1CCC[C@@H](n2nc(-c3ccc(Oc4ccccc4)cc3)c3c(N)ncnc32)C1 [Formula XX-A, 1-[(3R)-3-[4-amino-3-(4-phenoxyphenyl)-1H-pyrazolo[3,4-d]pyrimidin-1-yl]piperidin-1-yl]prop-2-en-1-one, reference compound]	significantly inhibits	able to limit this process	–	–	–	–	–	–	–	–	–	–	–	–
C=CC(=O)Nc1cccc(Nc2nc(Nc3ccc(OCCOC)cc3)ncc2F)c1 [Formula XXVII, N-(3-((5-fluoro-2-((4-(2-methoxyethoxy)phenyl)amino)pyrimidin-4-yl)amino)phenyl)acrylamide]	–	effect similar to Formula XX-A (ibrutinib)	–	–	–	–	–	–	–	–	–	–	–	–
CC#CC(=O)N1CCC[C@H]1c1nc(-c2ccc(C(=O)Nc3ccccn3)cc2)c2c(N)nccn12 [Formula (XVIII), (S)-4-(8-amino-3-(1-(but-2-ynoyl)pyrrolidin-2-yl)imidazo[1,5-a]pyrazin-1-yl)-N-(pyridin-2-yl)benzamide]	does not	–	increase	significant reduction	significant reduction	significant reduction	impairs	not observed	24	significantly reduced	decreased	reduced	reduced	reduction
